Experimental data published in patent publication US8648050B2 (University of Mississippi, priority 2011, dated 2014).
Values after ≈ are worked out from the molar mass of the structure shown. “Also recorded” adds a separate entry of the source. Read-outs that look alike come from different tables or passages of the source.

Experiments:
[1] = system: Candida albicans; assay: Antifungal susceptibility testing of HPLC fractions, NCCLS broth microdilution (Example 1); assay type: cell-based
Experimental: Test Isolates: One Candida albicans isolate, American Type Culture Collection (ATCC) strain 90028, is selected.
Antifungal Susceptibility Testing: Sample MIC's are determined by broth microdilution according to NCCLS guidelines. Isolates are subcultured twice on potato dextrose agar (PDA) plates (Remei, Lenexa, Kans., USA). Fungal suspensions are prepared by transferring four to five colonies into about 5 mL of sterile about 0.9% saline. […] 100 uL of inoculum is added to each well of a microtiter tray containing 100 uL of serially diluted drug in RPMI solution. Sample concentrations of about 0.0039, about 0.0078, about 0.0156, about 0.0312, about 0.0624, about 0.125, about 0.25, about 0.5, about 1, about 2, and about 4 ug/mL are achieved. The trays are incubated in a humid, dark chamber for about 48 hours at about 35° C. […] MIC determinations are performed a minimum of two times with an additional run if the quantity of sample drug allowed for it. It is decided to determine the MFC on samples which achieved definitive MICs. After the MIC is read at 48-h, a 1 uL sample is withdrawn from each microtiter tray with a 96 pin replicator (Boekel, Feasterville, Pa.) and plated onto an RPMI agar plate. Samples are incubated in a humid, dark chamber for about 48 hours at about 35° C. MFC is determined by the complete lack of organism growth on the plate and recorded as the corresponding well in the MIC tray.

[2] = In vivo renal & hemodynamic assessment; design: species or system Sprague-Dawley rats
Source text: In vivo renal & hemodynamic Assessment: Sprague-Dawley (Harlan Sprague Dawley) rats (224-249 g) were housed in a temperature-controlled room on a 12:12-h light-dark cycle and fed standard chow (Harlan Teklad; Madison, Wis.) and water ad libitum for a period of at least 1 week before surgical procedures and experimental treatment. All procedures and experimental designs were in accordance with the guidelines of the American Association for Accreditation of Laboratory Animal Care (AAALAC) and approved by the University of Mississippi Medical Center's Institutional Animal Care and Use Committee. Animals were anesthetized using isoflurane delivered by an anesthesia machine (Vaporizer for Forane Anesthetic: Ohio Medical Products, Madison, Wis.). A midline lower abdominal incision was made, and the bladder was cannulated with flare-tipped PE-90 tubing for urine collection. Catheters of heat-stretched PE-50 tubing were inserted into the left femoral artery and right femoral vein for blood sampling and blood pressure monitoring. After implantation, each catheter was filled with a 50:50 solution of heparin and saline and exteriorized at the back of the neck. All animals were instrumented with a specially made Silastic catheter and steel bladder as described by Gellai and Valtin for renal clearance measurements (5). On complete instrumentation, all animals were allowed to recover for a period of 4 days.
Doses studied for assessment of renal toxicity range started at 1 mg/kg as a single dose infused at 0.015 mL/min over 1 hour. Incremental increases in dose were performed until 2 mg/kg was achieved. That dose was deemed to be nephrotoxic on the basis of a 16% reduction in mean glomerular filtration rate (GFR). […] In experimental studies, animals were treated with saline for up to 1 day and then placed in modified restraining cages for renal function measurements. Each animal served as their own control, prior to receiving AmB formulations. […] The femoral vein catheter was then connected to an infusion pump. Isotonic saline containing sodium [^125I]iothalamate and para-aminohippurate (PAH) was infused intravenously at a fixed rate of 3 mL/h After a 60-minute stabilization period, two 20-minute urine collections were obtained, followed by collection of blood samples. Urine volume was determined gravimetrically. Sodium and potassium concentrations in plasma and urine were measured by flame photometry. Glomerular filtration rate and effective renal plasma flow were calculated from the radioactivity of ^125I and concentration of PAH, respectively, in plasma and urine. PAH concentration was determined colorimetrically. Arterial pressure was monitored in conscious animals with a pressure transducer connected to a Grass model 7B chart recorder for continuous recording. […]

[3] = published, cited from earlier work
[4] = in vivo; settings: Balb/c, mouse
[5] = system: C. albicans ATCC 44858; assay: Murine Candida albicans systemic infection model (survival, tissue burden); assay type: in vivo, Balb/c mice
Experimental: Survival in an Infection Model: Evaluation of efficacy was performed in a murine Candida albicans systemic infection model. For each experiment, an isolate of C. albicans ATCC 44858 was thawed and then incubated overnight on Sabouraud dextrose agar (Unipath Limited). One colony was transferred into 25 mL of Sabouraud dextrose broth (Unipath Limited). The broth was incubated on an orbital mixer for 8 hours at 37° C., centrifuged to pellet the organisms, and then washed and resuspended in saline. Density was adjusted using optical density at 490 nm. Initial studies were performed in which 0.15-0.2 mL saline containing this Candida strain over a range of densities was injected intravenously to determine the optimum inoculum. The 90% lethal dose (LD90) was defined as the inoculum of the organism that caused 90% mortality 10 days post-infection. The inocula for the all isolates are estimated at 3-5×10^8 CFU/mL. These inocula were used in this study.
Specific-pathogen-free Balb/c mice (age 12-20 weeks) were obtained from IFFA Credo (L'Arbresle, France). Female mice were infected with 0.15-0.2 mL of C. albicans inoculum (4×10^8 CFU/mL) by injection into the lateral tail vein and then returned to their home cages. Post-infection viability counts were performed to ensure the correct inoculum had been given. […] At time of death or animal sacrifice, vital organs (liver, spleen, heart, bladder, muscle) were isolated and transferred into 2 mL cold sterile phosphate-buffered saline. Samples were frozen at −80° C. until analysis. At batch processing time, each sample was thawed and weighed. The organs were divided into 2 batches. Organs in one batch were homogenized in a tissue grinder for 14-30 seconds and then diluted 1:10, 1:100, and 1:1000. A 100 μL aliquot of each sample was plated on Sabourauds dextrous agar and incubated at 37° in a humidified incubator. Plates were examined daily for 7 days, and colony counts were recorded from all plates each day. The second batch of organ tissue was evaluated microscopically. Leukopenia was not induced by intraperitoneal administration of cyclophosphamide at 100 mg/kg 4 days before C. albicans inoculation due to the overall success of the model and the desire to maintain competency of the immune system.
Statistical Analysis: Animal survival between treated and untreated infected animals was selected as the primary outcome measure.

[6] = Stability of AmBHP to pH and temperature during work up; assay type: physicochemical
Source text: As a point in fact, AmBHP can be obtained with elution in ethanol containing 1% 1 N HCL (0.01 N HCl in water has a pH ˜2) if the pH during post-column work up is maintained between 5-7. Nor is the apparent purity of AmBHP adversely affected by a short exposure to pH ˜11, as occurs during solubilization with deoxycholate. However, at both extremes, AmBHP may degrade during evaporation of solvent under air/nitrogen or during lyophilization. […] During evaporation of solvent, the temperature of the heating block remained at about 40° C. or less. The presence of DMSO or DMF during drying/lyophilization or prolonged storage (even at −20° C.) may result in degradation.

[7] = system: THP-1 cells
[8] = system: IL-1β expression by THP-1 cells; assay: In vitro infusion related reaction assay (IL-1β release, ELISA); settings: FIG. 3 or 9
Experimental: Cells are then incubated for about 2 hours. Supernatants are collected from each well after three freeze-thaws and stored at about −70° C. until assay. Samples are assayed for IL-1β using an enzyme-linked immunosorbent assay (Cistron Biotechnology; Pine Brook, N.J.) (ELISA). The procedure involves a four-step test carried out in microtiter wells which are coated with IL-1β specific monoclonal antibody. […] There is no cross-reactivity for IL-1α, IL-2, TNF-α or interferon. […] Data are the mean of duplicate assays and are expressed in pg/mL on the basis of standards supplied by the manufacturer.
Supernatants were collected from each well after three freeze-thaws cycles and stored at −80° C. until assayed. Samples were assayed for interleukin-1β (IL-1β) using an enzyme-linked immunosorbent assay (Cistron Biotechnology; Pine Brook, N.J.).

CC1/C=C/C=C/C=C/C=C/C=C/C=C/C=C/C(OC2OC(C)C(O)C(N)C2O)CC2OC(O)(CC(O)CC(O)C(O)CCC(O)CC(O)CC(=O)OC(C)C(C)C1O)CC(O)C2C(=O)O (stereo not drawn) [AmB, Amphotericin B]
MIC ([1]; 100% inhibition vs control, 48 hours at 35° C., Candida albicans B311 (footnote 1), read-out: Median MIC100): 0.25 µg/mL (≈ 0.271 µM) | MIC80 ([1]; Candida albicans, 48 h, read-out: Median MIC80): 0.1 µg/mL (≈ 0.108 µM) | MFC ([1]; Candida albicans, ATCC90028, fungicidal to all cells, no growth on agar plates, footnotes 1,2: C. albicans B311, ATCC 90028): 0.625 µg/mL (≈ 0.676 µM) | mean GFR ([2]; rats, 2 mg/kg over one hour): 1.92 mL/min | LD50, average parenteral dose ([3]; OF-1, CD-1 and Balb/c mice): 2.78 mg/kg | LD50, range ([3]; OF-1, CD-1 and Balb/c mice): 2.3 to 3.46 mg/kg | LD50 ([3]; fasting mice): 1.51 mg/kg | LD50 ([3]; fed animals): 2.38 mg/kg | LD50 [4]: ~2.5 mg/kg

CC1/C=C/C=C/C=C/C=C/C=C/C=C/C=C/C(OC2OC(C)C(O)C(N)C2O)CC2OC(O)(CC(O)CC(O)C(O)CCC(O)CC(O)CC(=O)OC(C)C(C)C1O)CC(O)C2C(=O)O (stereo not drawn) [AmBHP, Amphotericin B Highly Purified]
other indices of cardio-renal function ([2]; doses 10-fold outside the range of toxicity for AmB): not adversely affected | mean GFR ([2]; rats, 20 mg/kg over one hour): 2.03 mL/min | renal function (GFR), decrease as percent control ([2]; rats, 20 mg/kg over one hour): 7.9% | mortality in infected mice ([5]; 0.5 mg/kg, 5 days post infection): 20% | activity against fungi in blood ([5]; blood): as effective against blood-borne fungi as was Pharma-Tek AmB | colony counts from lungs and livers ([5]; compared to AmB): lower colony counts | C. albicans tissue burden, efficacy ([5]; post-mortem liver, spleen, heart, kidney, lung and blood): comparable to those of Pharma-Tek® AmB and AmBLC | stability on exposure to variations in pH ([6]; pH between ˜2 and ˜11, short-term): does not appear to adversely affect AmB | stability to temperature ([6]; post-column work up): may degrade at high temperature | toxicity by ability of THP-1 cells to exclude trypan blue [7]: less disruptive to the cell membrane than is commercial deoxycholate-formulated AmB | general toxicity in vivo (apparent LD50 and survival of Candida-infected mice), less than generic or lipid-complexed AmB: roughly 2 fold | cytokine (IL-1β) response, comparison in words [8]: Less cytokine is expressed; also recorded: less of a cytokine response than did AmB; also recorded: failed to further increase cytokine release at concentrations as high as 21.6 μM
